Assay results from patent US12599578B2, “Compositions comprising enzyme-cleavable prodrugs and controlled release nafamostat and methods of use thereof” (Ensysce Biosciences Inc., priority 2021, dated 2026).
Where two headings read alike, the source gives them in different places.

Tests used:
[1] = Blood hydromorphone after 1, 3, 6 or 10 pills of PF329 with or without nafamostat in rats; assay type: in vivo; details: rats, 1, 3, 6 or 10 pills of PF329 containing nafamostat (FIG. 5)
Excerpt: The rat experiments were repeated with a derivative of hydromorphone (referred to herein as PF329), which is another known pain medication. FIGS. 4 and 5 show the blood concentration of active hydromorphone (HM) after the administration of 1, 3, 6, or 10 pills, either without or with nafamostat.

[2] = Plasma oxycodone pharmacokinetics after oral KC-8 with or without nafamostat in rats; assay type: in vivo; details: nafamostat co-administered with an oxycodone or hydromorphone derivative
Protocol: The drug nafamostat mesylate was added to the formulations containing the KC-8 oxycodone-derivative. In the examples described herein, the terms “nafamostat mesylate” and “nafamostat” are used interchangeably.
Formulations containing both KC-8 and optionally nafamostat were administered orally to rats. The KC-8 dose was 5 mg/kg and the nafamostat concentration was 0, 0.1, 0.5, or 1 mg/kg. Plasma concentrations of active oxycodone were measured at various time intervals over 24 hours after administration.
In particular, the rats received 50 mg/kg of KC-8 and 0, 1, 5, or 10 mg/kg of nafamostat. With zero nafamostat, blood plasma concentration experienced a maximum of about 22 ng/ml at about 2 hours, wherein the concentration rapidly descended thereafter. In alignment with the data of FIG. 2, higher concentrations of nafamostat reduced the peak concentration to about 3 ng/ml at about 8 hours.

[3] = 200 mg nafamostat; cited from earlier work
[4] = doses of up to 200 mg KC-8 (80 mg oxycodone); cited from earlier work

| Structure (SMILES) | change of hydromorphone blood concentration on administering more pills [1] | effect on maximum concentration of active drug in blood plasma [2] | safety and tolerability [3] | safety and tolerability [4] |
| --- | --- | --- | --- | --- |
| N=C(N)c1ccc2cc(OC(=O)c3ccc(N=C(N)N)cc3)ccc2c1 [nafamostat, 6-carbamimidoylnaphthalen-2-yl 4-(diaminomethyleneamino)benzoate] | little increase | significantly reduced the maximum concentration of active drug in blood plasma | safe and well tolerated |  |
| COc1ccc2c3c1O[C@H]1C(OC(=O)N(C)CC(C)(C)CNC(=O)[C@H](CCCNC(=N)N)NC(=O)CNC(=O)CC(=O)O)=CC[C@@]4(O)[C@@H](C2)N(C)CC[C@]314 [KC-8, N-1-[3-(oxycodone-6-enol-carbonyl-methyl-amino)-2,2-dimethyl-propylamine]-arginine-glycine-malonic acid] |  |  |  | safe and well tolerated |
